Measured values published in patent US7932270B2 (Cytokinetics, Inc., priority 2006, dated 2011).

Molecular target: T1, chicken gizzard smooth muscle myosin subfragment-1 chemically crosslinked to cardiac or skeletal actin (Gallus gallus, UniProt P10587)
T1 construct: chicken gizzard smooth muscle myosin subfragment-1; from tissue; host or cells: chicken gizzard
Assay: Smooth muscle myosin ATPase dose response assay (pyruvate kinase/horseradish peroxidase/pyruvate oxidase-coupled, amplex red fluorescence)
Type: biochemical
Details: read-out: IC50 Arithmetic Mean
How it was run: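 Lead-optimization format: ATPase coupled via pyruvate kinase, pyruvate oxidase and peroxidase, pH 7.00 at 22° C, with 0.15 mM ATP, 100 mM KCl, 2 mM MgCl2, 2 mM phosphate and 0.1 mM amplex red (final). Crosslinked S1 titrated empirically for set hydrolysis rate; fluorescence (ex 480/em 615 nm) dose curves fit 4-parameter for IC50.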

T1 sequence (P02607 2-151): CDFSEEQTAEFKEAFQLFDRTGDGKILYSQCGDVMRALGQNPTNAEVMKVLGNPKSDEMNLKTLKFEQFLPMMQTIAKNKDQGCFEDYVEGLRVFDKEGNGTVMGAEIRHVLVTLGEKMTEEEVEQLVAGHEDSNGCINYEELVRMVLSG
T1 sequence (P10587 84-789): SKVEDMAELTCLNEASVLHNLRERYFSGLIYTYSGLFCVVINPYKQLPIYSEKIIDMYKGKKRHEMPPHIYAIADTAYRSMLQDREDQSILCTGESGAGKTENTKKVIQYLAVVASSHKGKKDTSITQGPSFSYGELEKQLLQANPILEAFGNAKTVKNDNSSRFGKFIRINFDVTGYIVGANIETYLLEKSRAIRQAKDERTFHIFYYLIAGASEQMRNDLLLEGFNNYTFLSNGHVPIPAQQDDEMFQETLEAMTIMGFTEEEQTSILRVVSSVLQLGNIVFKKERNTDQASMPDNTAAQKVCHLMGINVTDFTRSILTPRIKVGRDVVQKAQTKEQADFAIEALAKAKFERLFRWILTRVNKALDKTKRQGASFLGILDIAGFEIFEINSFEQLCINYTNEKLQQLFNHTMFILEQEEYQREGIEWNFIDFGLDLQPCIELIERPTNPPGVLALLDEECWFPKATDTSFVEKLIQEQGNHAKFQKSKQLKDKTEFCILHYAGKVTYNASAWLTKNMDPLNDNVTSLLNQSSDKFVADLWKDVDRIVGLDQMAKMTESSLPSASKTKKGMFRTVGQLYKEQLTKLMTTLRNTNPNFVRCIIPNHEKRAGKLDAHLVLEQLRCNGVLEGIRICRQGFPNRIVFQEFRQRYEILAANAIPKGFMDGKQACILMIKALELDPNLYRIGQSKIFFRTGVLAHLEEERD

| SMILES | IC50 |
| --- | --- |
| CN(C)C(=NCc1cncc(CNC(=O)c2ccc(-c3ccccc3C#N)nc2NCCc2cccc(F)c2)c1)N(C)C [N-({5-[3,3-bis(dimethylamino)-2-azaprop-2-enyl](3-pyridyl)}methyl)(6-(2-cyanophenyl)-2-{[2-(3-fluorophenyl)ethyl]amino}(3-pyridyl))carboxamide] | 2720 nM |
| CC(C)(C)OC(=O)NCCc1ncccc1CNC(=O)c1ccc(-c2ccccc2C#N)nc1NCCc1cccc(F)c1 [N-[(2-{2-[(tert-butoxy)carbonylamino]ethyl}(3-pyridyl))methyl](6-(2-cyanophenyl)-2-{[2-(3-fluorophenyl)ethyl]amino}(3-pyridyl))carboxamide] | 470 nM |
| Cn1cc(-c2nc(NCCc3cccc(F)c3)c(C(=O)NC[C@H]3CCCN3C(=O)OC(C)(C)C)cc2C#N)cn1 [tert-butyl (2R)-2-{[(5-cyano-2-{[2-(3-fluorophenyl)ethyl]amino}-6-(1-methylpyrazol-4-yl)(3-pyridyl))carbonylamino]methyl}pyrrolidinecarboxylate] | 2520 nM |
| C[C@H](CNC(=O)c1cc(F)c(-c2cn[nH]c2)nc1NCC(O)c1cccc(F)c1)NC(=O)CNC(=O)OC(C)(C)C (stereo partly drawn) | 14200 nM |
| Cn1cc(-c2nc(NCCc3cccc(F)c3)c(C(=O)NC[C@H]3CCCN3C(=O)[C@H](CO)NC(=O)OC(C)(C)C)cc2F)cn1 [N-[2-((2R)-2-{[(5-fluoro-2-{[2-(3-fluorophenyl)ethyl]amino}-6-(1-methylpyrazol-4-yl)(3-pyridyl))carbonylamino]methyl}pyrrolidinyl)(1S)-1-(hydroxymethyl)-2-oxoethyl](tert-butoxy)carboxamide] | 1200 nM |
| C[C@@H](NC(=O)OC(C)(C)C)C(=O)N1CCC[C@@H]1CNC(=O)c1ccc(-c2ccccc2C#N)nc1NCCc1cccc(F)c1 [N-[(1R)-2-((2R)-2-{[(6-(2-cyanophenyl)-2-{[2-(3-fluorophenyl)ethyl]amino}(3-pyridyl))carbonylamino]methyl}pyrrolidinyl)-1-methyl-2-oxoethyl](tert-butoxy)carboxamide] | 3940 nM |
| Cn1cc(-c2ccc(C(=O)NCC3CCN(CCCN)C3=O)c(NCCc3cccc(F)c3)n2)cn1 (stereo not drawn) [N-{[1-(3-aminopropyl)-2-oxopyrrolidin-3-yl]methyl}(2-{[2-(3-fluorophenyl)ethyl]amino}-6-(1-methylpyrazol-4-yl)(3-pyridyl))carboxamide] | 5500 nM |
| Cn1ccc(CNC(=O)c2ccc(-c3ccccc3)nc2NCCc2ccccn2)n1 [N-[(1-methylpyrazol-3-yl)methyl]{6-phenyl-2-[(2-(2-pyridyl)ethyl)amino](3-pyridyl)}carboxamide] | 2730 nM |
| CC(C)(C)OC(=O)NCCCN1CC(=O)N[C@H](CNC(=O)c2ccc(-c3ccccc3C#N)nc2NCCc2cccc(F)c2)C1 [N-[((2R)-4-{3-[(tert-butoxy)carbonylamino]propyl}-6-oxopiperazin-2-yl)methyl](6-(2-cyanophenyl)-2-{[2-(3-fluorophenyl)ethyl]amino}(3-pyridyl))carboxamide] | 9540 nM |
| Cn1cc(-c2nc(NCCc3cccc(F)c3)c(C(=O)NC[C@H]3CCC(=O)N3CCCNC(=O)OC(C)(C)C)cc2Cl)cn1 [N-[((2R)-1-{3-[(tert-butoxy)carbonylamino]propyl}-5-oxopyrrolidin-2-yl)methyl](5-chloro-2-{[2-(3-fluorophenyl)ethyl]amino}-6-(1-methylpyrazol-4-yl)(3-pyridyl))carboxamide] | 443 nM |
| NCCn1ccc(CNC(=O)c2ccc(-c3cc[nH]n3)nc2NCCc2cccc(F)c2)n1 [N-{[1-(2-aminoethyl)pyrazol-3-yl]methyl}(2-{[2-(3-fluorophenyl)ethyl]amino}-6-pyrazol-3-yl(3-pyridyl))carboxamide] | 5510 nM |
| O=C(NCc1cccnc1)c1ccc(-c2ccccc2)nc1NCCOc1ccccc1 [{6-phenyl-2-[(2-phenyoxyethyl)amino](3-pyridyl)}-N-(3-pyridylmethyl)carboxamide] | 20200 nM |
| CC[C@H](CNC(=O)c1cc(F)c(-c2cnn(C)c2)nc1NCCc1cccc(F)c1)NC(=O)CNC(=O)OC(C)(C)C [N-((1R)-1-{[(5-fluoro-2-{[2-(3-fluorophenyl)ethyl]amino}-6-(1-methylpyrazol-4-yl)(3-pyridyl))carbonylamino]methyl}propyl)-2-[(tert-butoxy)carbonylamino]acetamide] | 3040 nM |

Continued by falling IC50, values first:

| IC50 | SMILES |
| --- | --- |
| 1580 nM | Cn1cc(-c2nc(NCCc3cccc(F)c3)c(C(=O)NC[C@H]3CCN3)cc2F)cn1 [N-[((2R)azetidin-2-yl)methyl](5-fluoro-2-{[2-(3-fluorophenyl)ethyl]amino}-6-(1-methylpyrazol-4-yl)(3-pyridyl))carboxamide] |
| 1380 nM | CN(CCNC(=O)c1ccc(-c2ccccc2C#N)nc1NCCc1cccc(F)c1)S(C)(=O)=O [(6-(2-cyanophenyl)-2-{[2-(3-fluorophenyl)ethyl]amino}(3-pyridyl))-N-{2-[methyl(methylsulfonyl)amino]ethyl}carboxamide] |
| 1160 nM | N#Cc1ccccc1-c1ccc(C(=O)NC[C@H]2CCCCN2)c(NCCc2cccc(F)c2)n1 [N-[((2R)(2-piperidyl))methyl](6-(2-cyanophenyl)-2-{[2-(3-fluorophenyl)ethyl]amino}(3-pyridyl))carboxamide] |
| 996 nM | Cc1ccc(-c2ccc(C(=O)NCc3cccnc3)c(NCCc3cccc(F)c3)n2)c(C#N)c1 [(6-(2-cyano-4-methylphenyl)-2-{[2-(3-fluorophenyl)ethyl]amino}(3-pyridyl))-N-(3-pyridylmethyl)carboxamide] |
| 836 nM | O=C(NCc1ccno1)c1ccc(-c2ccccc2)nc1NCCc1ccccn1 [N-(isoxazol-5-ylmethyl){6-phenyl-2-[(2-(2-pyridyl)ethyl)amino](3-pyridyl)}carboxamide] |
| 790 nM | O=C(NCc1cccnc1)c1ccc(-c2cccc(O)c2)nc1NCCc1ccccn1 [{6-(3-hydroxyphenyl)-2-[(2-(2-pyridyl)ethyl)amino](3-pyridyl)}-N-(3-pyridylmethyl)carboxamide] |
| 433 nM | N#Cc1ccccc1-c1ccc(C(=O)NCC2CCN(C(=O)CCCN)C2)c(NCCc2cccc(F)c2)n1 (stereo not drawn) [N-{[1-(4-aminobutanoyl)pyrrolidin-3-yl]methyl}(6-(2-cyanophenyl)-2-{[2-(3-fluorophenyl)ethyl]amino}(3-pyridyl))carboxamide] |
| 310 nM | Cn1cc(-c2nc(NCCc3cccc(F)c3)c(C(=O)NC[C@H]3CCC(=O)N3CCCN)cc2C#N)cn1 [N-{[(2R)-1-(3-aminopropyl)-5-oxopyrrolidin-2-yl]methyl}(5-cyano-2-{[2-(3-fluorophenyl)ethyl]amino}-6-(1-methylpyrazol-4-yl)(3-pyridyl))carboxamide] |
| 140 nM | NC(=O)CNC(=O)c1cc(F)c(-c2cn[nH]c2)nc1NCCc1cccc(F)c1 [N-(carbamoylmethyl)(5-fluoro-2-{[2-(3-fluorophenyl)ethyl]amino}-6-pyrazol-4-yl(3-pyridyl))carboxamide] |
| 102 nM | CNC(=O)CNC(=O)c1ccc(-c2ccccc2C#N)nc1NCCc1cccc(F)c1 [2-[(6-(2-cyanophenyl)-2-{[2-(3-fluorophenyl)ethyl]amino}(3-pyridyl))carbonylamino]-N-methylacetamide] |
| 61 nM | NCC(=O)N1CCC[C@@H]1CNC(=O)c1cc(F)c(-c2cn[nH]c2)nc1NCCc1cccc(F)c1 [N-{[(2R)-1-(2-aminoacetyl)pyrrolidin-2-yl]methyl}(5-fluoro-2-{[2-(3-fluorophenyl)ethyl]amino}-6-pyrazol-4-yl(3-pyridyl))carboxamide] |
